Source: patent publication US20140004243A1, “SALTY TASTE ENHANCER” (AJINOMOTO CO., INC., priority 2011, published 2014)

Tested on: human
Assay: Sensory evaluation of salty taste enhancing activity of compound of the present invention in human
Type: in vivo
Conditions: n=5; for salty taste enhancing rate (fold) middle and after taste: after 2 seconds; for salty taste enhancing rate (fold) initial taste: first 2 seconds
Method: The intensity of a salty taste enhancing activity and the strength of a bitter taste were examined by a quantitative sensory evaluation test for the compound of the present invention (compounds of Examples 11 and 51).
The quantitative sensory evaluation test was performed as follows. Distilled water containing sodium chloride (0.8 g/dl) was mixed with capsazepine as a sample at 0.001 g/dl, or the compound of Example 11 or Example 51 at 0.0001 to 0.001 g/dl, and the level of a salty taste enhancing activity was measured. Distilled water containing 0.8 g/dl of sodium chloride was used as a control, and distilled water containing 0.9 g/dl or 1.0 g/dl of sodium chloride was used as a comparison target. Using a linear measurement method, a straight line showing 1.0-fold (0.8 g/dl), 1.13-fold (0.9 g/dl), 1.25-fold (1.0 g/dl) positions of sodium chloride concentration was drawn and the position showing the strength of the corresponding salty taste was put down thereon. As for the strength of a bitter taste, using the bitter taste of a solution obtained by mixing distilled water containing sodium chloride (0.8 g/dl) with capsazepine at 0.0001 to 0.001 g/dl as the standard, the strength of the bitter taste of the solution obtained by mixing the compound of Example 11 or Example 51 at 0.0001 to 0.001 g/dl was relatively evaluated by comparison. The points were marked based on 0 point for no bitter taste, and 5.0 points for the strength of the bitter taste of a solution containing 0.001 g/dl capsazepine. The test was performed at n=5. […] The “initial taste” means the evaluation of the strength of the salty taste for 2 seconds after placing in the mouth, and the “middle and after taste” means a combination of middle taste and after taste, which is the evaluation of the strength of the salty taste after 2 seconds from placing in the mouth.

[1] = sample 0.0001 g/dl in 0.8 g/dl sodium chloride
[2] = sample 0.0005 g/dl in 0.8 g/dl sodium chloride
[3] = sample 0.001 g/dl in 0.8 g/dl sodium chloride

SMILES	salty taste enhancing rate (fold) middle and after taste [1]	salty taste enhancing rate (fold) initial taste [1]	salty taste enhancing rate (fold) middle and after taste [2]	salty taste enhancing rate (fold) initial taste [2]	salty taste enhancing rate (fold) middle and after taste [3]	salty taste enhancing rate (fold) initial taste [3]
OC[C@@H](NC(=S)NCCc1ccccc1)c1ccccc1 [Example 51]	1.11 fold	1.09 fold	1.17 fold	1.13 fold	1.17 fold	1.17 fold
Oc1cc2c(cc1O)CN(C(=S)NCCc1ccc(Cl)cc1)CCC2 [capsazepine]	1.11 fold	1.11 fold	–	–	–	–
C[C@@H](NC(=S)NCCc1ccccc1)c1ccccc1 [Example 11]	1.10 fold	1.10 fold	1.14 fold	1.15 fold	1.14 fold	1.13 fold
